Measurements taken from PubChem BioAssay AID1259407 (Chemical Carcinogenesis Research Information System (CCRIS), 2018).
Activity calls are given as the source filed them. How the calls were made is not given here.

System: CCRIS mutagenicity, Ames/micronucleus/aberration tests
Assay: CCRIS mutagenicity studies
[1] = Test System: MOUSE LYMPHOMA, Strain/Indicator: L5178Y (TK+/TK-), Metabolic Activation: NONE, Method: SUSPENSION/PLATE
[2] = Test System: AMES SALMONELLA TYPHIMURIUM, Strain/Indicator: TA100, Metabolic Activation: NONE, Method: STANDARD PLATE

SMILES: FC(C(F)(F)F)C(F)(F)F
- mutagenic call (Test System: AMES SALMONELLA TYPHIMURIUM, Strain/Indicator: TA98, Metabolic Activation: NONE, Method: DESICCATOR): inactive; negative
- mutagenic call (Test System: AMES SALMONELLA TYPHIMURIUM, Strain/Indicator: TA98, Metabolic Activation: NONE, Method: VAPOR CHAMBER): inactive; negative
- mutagenic call (Test System: AMES SALMONELLA TYPHIMURIUM, Strain/Indicator: TA98, Metabolic Activation: RAT, LIVER, S-9, AROCLOR 1254, Method: DESICCATOR): inactive; negative
- mutagenic call (Test System: AMES SALMONELLA TYPHIMURIUM, Strain/Indicator: TA98, Metabolic Activation: RAT, LIVER, S-9, AROCLOR 1254, Method: VAPOR CHAMBER): inactive; negative
- mutagenic call (Test System: AMES SALMONELLA TYPHIMURIUM, Strain/Indicator: TA100, Metabolic Activation: NONE, Method: DESICCATOR): inactive; negative
- mutagenic call (Test System: AMES SALMONELLA TYPHIMURIUM, Strain/Indicator: TA100, Metabolic Activation: NONE, Method: VAPOR CHAMBER): inactive; negative
- mutagenic call (Test System: AMES SALMONELLA TYPHIMURIUM, Strain/Indicator: TA100, Metabolic Activation: RAT, LIVER, S-9, AROCLOR 1254, Method: DESICCATOR): inactive; negative
- mutagenic call (Test System: AMES SALMONELLA TYPHIMURIUM, Strain/Indicator: TA100, Metabolic Activation: RAT, LIVER, S-9, AROCLOR 1254, Method: VAPOR CHAMBER): inactive; negative
- mutagenic call (Test System: AMES SALMONELLA TYPHIMURIUM, Strain/Indicator: TA1535, Metabolic Activation: NONE, Method: DESICCATOR): inactive; negative
- mutagenic call (Test System: AMES SALMONELLA TYPHIMURIUM, Strain/Indicator: TA1535, Metabolic Activation: NONE, Method: VAPOR CHAMBER): inactive; negative
- mutagenic call (Test System: AMES SALMONELLA TYPHIMURIUM, Strain/Indicator: TA1535, Metabolic Activation: RAT, LIVER, S-9, AROCLOR 1254, Method: DESICCATOR): inactive; negative
- mutagenic call (Test System: AMES SALMONELLA TYPHIMURIUM, Strain/Indicator: TA1535, Metabolic Activation: RAT, LIVER, S-9, AROCLOR 1254, Method: VAPOR CHAMBER): inactive; negative
- mutagenic call (Test System: AMES SALMONELLA TYPHIMURIUM, Strain/Indicator: TA1537, Metabolic Activation: NONE, Method: DESICCATOR): inactive; negative
- mutagenic call (Test System: AMES SALMONELLA TYPHIMURIUM, Strain/Indicator: TA1537, Metabolic Activation: NONE, Method: VAPOR CHAMBER): inactive; negative
- mutagenic call (Test System: AMES SALMONELLA TYPHIMURIUM, Strain/Indicator: TA1537, Metabolic Activation: RAT, LIVER, S-9, AROCLOR 1254, Method: DESICCATOR): inactive; negative
- mutagenic call (Test System: AMES SALMONELLA TYPHIMURIUM, Strain/Indicator: TA1537, Metabolic Activation: RAT, LIVER, S-9, AROCLOR 1254, Method: VAPOR CHAMBER): inactive; negative
- mutagenic call (Test System: AMES SALMONELLA TYPHIMURIUM, Strain/Indicator: TA1538, Metabolic Activation: NONE, Method: DESICCATOR): inactive; negative
- mutagenic call (Test System: AMES SALMONELLA TYPHIMURIUM, Strain/Indicator: TA1538, Metabolic Activation: NONE, Method: VAPOR CHAMBER): inactive; negative
- mutagenic call (Test System: AMES SALMONELLA TYPHIMURIUM, Strain/Indicator: TA1538, Metabolic Activation: RAT, LIVER, S-9, AROCLOR 1254, Method: DESICCATOR): inactive; negative
- mutagenic call (Test System: AMES SALMONELLA TYPHIMURIUM, Strain/Indicator: TA1538, Metabolic Activation: RAT, LIVER, S-9, AROCLOR 1254, Method: VAPOR CHAMBER): inactive; negative
- mutagenic call [1]: inactive; negative
- mutagenic call (Test System: MOUSE LYMPHOMA, Strain/Indicator: L5178Y (TK+/TK-), Metabolic Activation: RAT, LIVER, S-9, AROCLOR 1254, Method: SUSPENSION/PLATE): inactive; negative

SMILES: C=COC(C)=O
- mutagenic call (Test System: AMES SALMONELLA TYPHIMURIUM, Strain/Indicator: TA97, Metabolic Activation: NONE, Method: STANDARD PLATE): inactive; negative
- mutagenic call (Test System: AMES SALMONELLA TYPHIMURIUM, Strain/Indicator: TA97, Metabolic Activation: RAT, LIVER, S-9, AROCLOR 1254, Method: STANDARD PLATE): inactive; negative
- mutagenic call (Test System: AMES SALMONELLA TYPHIMURIUM, Strain/Indicator: TA98, Metabolic Activation: NONE, Method: STANDARD PLATE): inactive; negative
- mutagenic call (Test System: AMES SALMONELLA TYPHIMURIUM, Strain/Indicator: TA98, Metabolic Activation: RAT, LIVER, S-9, AROCLOR 1254, Method: STANDARD PLATE): inactive; negative
- mutagenic call [2]: inactive; negative
- mutagenic call (Test System: AMES SALMONELLA TYPHIMURIUM, Strain/Indicator: TA100, Metabolic Activation: RAT, LIVER, S-9, AROCLOR 1254, Method: STANDARD PLATE): inactive; negative
- mutagenic call (Test System: AMES SALMONELLA TYPHIMURIUM, Strain/Indicator: TA102, Metabolic Activation: RAT LIVER S-9, PHENOBARBITAL AND 5,6-BENZOFLAVONE, Method: STANDARD PLATE): inactive; negative
- mutagenic call (Test System: AMES SALMONELLA TYPHIMURIUM, Strain/Indicator: TA102, Metabolic Activation: RAT, LIVER, S-9, AROCLOR 1254, Method: PREINCUBATION): active; positive
- mutagenic call (Test System: AMES SALMONELLA TYPHIMURIUM, Strain/Indicator: TA102, Metabolic Activation: RAT, LIVER, S-9, AROCLOR 1254, Method: STANDARD PLATE): inactive; negative
- mutagenic call (Test System: AMES SALMONELLA TYPHIMURIUM, Strain/Indicator: TA2638, Metabolic Activation: RAT LIVER S-9, PHENOBARBITAL AND 5,6-BENZOFLAVONE, Method: STANDARD PLATE): inactive; negative
- mutagenic call (Test System: Ames Salmonella typhimurium, Strain/Indicator: TA98, Metabolic Activation: None, Method: Preincubation): inactive; negative
- mutagenic call (Test System: Ames Salmonella typhimurium, Strain/Indicator: TA98, Metabolic Activation: Rat, Liver, S9, Sodium phenobarbital and 5,6-benzoflavone (10%), Method: Preincubation): inactive; negative
- mutagenic call (Test System: Ames Salmonella typhimurium, Strain/Indicator: TA100, Metabolic Activation: None, Method: Preincubation): inactive; negative
- mutagenic call (Test System: Ames Salmonella typhimurium, Strain/Indicator: TA100, Metabolic Activation: Rat, Liver, S9, Sodium phenobarbital and 5,6-benzoflavone (10%), Method: Preincubation): inactive; negative
- mutagenic call (Test System: Ames Salmonella typhimurium, Strain/Indicator: TA1535, Metabolic Activation: None, Method: Preincubation): inactive; negative
- mutagenic call (Test System: Ames Salmonella typhimurium, Strain/Indicator: TA1535, Metabolic Activation: Rat, Liver, S9, Sodium phenobarbital and 5,6-benzoflavone (10%), Method: Preincubation): inactive; negative
- mutagenic call (Test System: Ames Salmonella typhimurium, Strain/Indicator: TA1537, Metabolic Activation: None, Method: Preincubation): inactive; negative
- mutagenic call (Test System: Ames Salmonella typhimurium, Strain/Indicator: TA1537, Metabolic Activation: Rat, Liver, S9, Sodium phenobarbital and 5,6-benzoflavone (10%), Method: Preincubation): inactive; negative
- mutagenic call (Test System: Ames Salmonella typhimurium, Strain/Indicator: YG7108pin3ERb5, Metabolic Activation: None, Method: Standard plate): inactive; negative
- mutagenic call (Test System: E. COLI, Strain/Indicator: WP2 (PKM101), Metabolic Activation: RAT LIVER S-9, PHENOBARBITAL AND 5,6-BENZOFLAVONE, Method: STANDARD PLATE): inactive; negative
- mutagenic call (Test System: E. COLI, Strain/Indicator: WP2 UVRA (PKM101), Metabolic Activation: RAT LIVER S-9, PHENOBARBITAL AND 5,6-BENZOFLAVONE, Method: STANDARD PLATE): inactive; negative
- mutagenic call (Test System: E. coli, Strain/Indicator: WP2uvrA/pKM101, Metabolic Activation: None, Method: Preincubation): inactive; negative
- mutagenic call (Test System: E. coli, Strain/Indicator: WP2uvrA/pKM101, Metabolic Activation: Rat, Liver, S9, Sodium phenobarbital and 5,6-benzoflavone (10%), Method: Preincubation): inactive; negative
- mutagenic call [1]: active; positive. reevaluation of results: positive
- mutagenic call (Test System: Mouse lymphoma, Strain/Indicator: L5178Y (tk+/tk-), Metabolic Activation: Rat, Liver, S-9, Aroclor 1254, Method: Suspension/plate): active; positive

SMILES: O=C(ON(OCc1ccccc1)C(=O)c1ccccc1)c1ccc(Cl)cc1
- mutagenic call [2]: active; positive
- mutagenic call (Test System: AMES SALMONELLA TYPHIMURIUM, Strain/Indicator: TA100, Metabolic Activation: RAT, S-9, AROCLOR, Method: STANDARD PLATE): active; positive
